Laboratory results: patent US11660311B2, “Cyclic dinucleotides as anticancer agents” (priority 2017, dated 2023)
Read-outs that look alike come from different tables or passages of the source.

Legend:
[1] = test system: NF-κB pathway in THP1-Dual STING reporter cells; assay: STING THP1 Reporter Assay, NF-κB pathway (SEAP); format: cell-based, human; details: 100% = 100 μM cGAMP
Text: (§1) THP1-Dual™ cells were derived from the human THP-1 monocyte cell line by stable integration of two inducible reporter constructs. To this end, THP1-Dual™ cells allow the simultaneous study of the NF-κB pathway, by monitoring the activity of SEAP, and the IRF pathway by assessing the activity of a secreted luciferase (Lucia). Both reporter proteins are readily measurable in the cell culture supernatant when using QUANTI-Blue™, a SEAP detection reagent, and QUANTI-Luc™, a luciferase detection reagent.
(§2) THP1-Dual™ cells induce the activation of NF-κB in response to STING agonists. They also trigger the IRF pathway upon stimulation with STING agonists, such as cGAMP. Here, the THP-1-Dual cells were used to assess STING binders for function on the cellular level.
(§3) Serial dilutions of compounds in DMSO were added to low volume 384 well plates at 100 nl/well using an ECHO acoustic dispenser (Labcyte, model 550) to achieve final starting concentration of 100 μM in cell suspension. […] One column of the plate was reserved for treatment with cGAMP at 100 μM for 100% activation calculation and one column for no treatment (DMSO only) for baseline activation. Plates were then incubated in 37° C. incubator at 5% CO2 for 20 hours.
(§4) In the SEAP assay, 5 μl of 2× QuantiBlue (Invivogen, cat #Rep-qb2) is added to 384 well black plates seeded with THP1 cells and incubated at 37° C. for 2 hours. Plates were read on the Envision (Perkin Elmer) at 620 nm wavelength (OD620). In the luciferase assay, 5 μl of Quantiluc (Invivogen, Rep-qlc2) is added to white 384 well plates seeded with THP1 cells and read at 5 minutes on the Envision (Perkin Elmer) using a luminescence protocol (RLU). For both cell lines, 100% activation was determined by value (RLU) of THP-1 Dual STING cells stimulated with 100 μM cGAMP (Invivogen, cat #TLRL-NACGA23-5).

[2] = test system: IRF pathway in THP1-Dual STING reporter cells; assay: STING THP1 Reporter Assay, IRF pathway (secreted Lucia luciferase); format: cell-based, human; details: 100% = 100 μM cGAMP
Text: as §1, §2, §3, §4

[3] = target: T1, STING AQ: His-TVMV-S-hSTING(155-341)-G230A-R293Q (Homo sapiens, UniProt Q86WV6, G230A/H232R/R293Q); assay: STING HTRF Binding Assay, STING AQ; details: 20 nM His-tagged STING cytoplasmic domain, 40 nM fluorescein-labeled cGAMP analog probe, one hour; read-out: HTRF Binding Assays IC50 (μM) STING AQ
T1 construct: STING AQ: His-TVMV-S-hSTING(155-341)-G230A-R293Q
T1 sequence (Q86WV6 with tags, fused parts or gaps G230A/H232R/R293Q): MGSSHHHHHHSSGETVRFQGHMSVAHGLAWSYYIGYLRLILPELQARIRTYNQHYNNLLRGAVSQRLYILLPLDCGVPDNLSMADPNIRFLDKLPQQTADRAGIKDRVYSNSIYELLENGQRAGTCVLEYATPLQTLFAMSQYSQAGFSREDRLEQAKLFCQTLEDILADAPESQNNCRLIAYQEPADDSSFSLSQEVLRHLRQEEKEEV
Description: (§5) A time resolved FRET-based competition binding assay was used to assess test article binding to STING WT and STING AQ. His-tagged STING cytoplasmic domain (WT or AQ) at a concentration of 20 nM was incubated with 2.5 nM Tb-labeled anti-His antibody, test compound, and fluorescein-labeled cGAMP analog probe (BioLog cat. no. C195) at a concentration of 200 nM (STING WT) or 40 nM (STING AQ) in PBS containing 0.005% Tween-20 and 0.1% BSA for one hour. Fluorescence at 495 nm and 520 nm was measured using an EnVision microplate reader to quantify FRET between Tb-labeled anti-His antibody and fluorescein-labeled probe. Background was defined as the signal obtained in the absence of STING protein, and background subtracted FRET ratios were normalized to the maximum signal obtained in the absence of test compound. These values were converted to a percent inhibition. Percent inhibition was determined for test compounds at 11 concentrations. The IC50, defined as the concentration of competing test compound needed to reduce specific binding of the probe by 50%, was calculated using the 4 parameter logistic equation to fit the data

[4] = target: T2, STING WT: His-TVMV-S-hSTING(155-341)-H232R (Homo sapiens, UniProt Q86WV6, H232R); assay: STING HTRF Binding Assay, STING WT; details: 20 nM His-tagged STING cytoplasmic domain, 200 nM fluorescein-labeled cGAMP analog probe, one hour; read-out: HTRF Binding Assays IC50 (μM) STING WT
T2 construct: STING WT: His-TVMV-S-hSTING(155-341)-H232R
T2 sequence (Q86WV6 with tags, fused parts or gaps H232R): as the sequence (Q86WV6 with tags, fused parts or gaps G230A/H232R/R293Q) above, with A99G, Q162R counted along it
Description: as §5

[5] = Homo sapiens, THP1-Dual, 20 h, read-out: THP1 Reporter Assays EC50 (μM) NFkB, THP1-Dual cells, 10% human plasma, 20 hours, SEAP
[6] = Homo sapiens, THP1-Dual, 20 h, read-out: THP1 Reporter Assays EC50 (μM) IRF3, THP1-Dual cells, 10% human plasma, 20 hours, luciferase
[7] = Homo sapiens, THP1-Dual, 20 h, THP1-Dual cells, 10% human plasma, 20 hours, SEAP, read-out: THP1 Reporter Assays EC50 (μM) NFkB
[8] = Homo sapiens, THP1-Dual, 20 h, THP1-Dual cells, 10% human plasma, 20 hours, luciferase, read-out: THP1 Reporter Assays EC50 (μM) IRF3
[9] = read-out: THP1 Reporter Assays EC50 (μM) NFkB, THP1-Dual cells, 10% human plasma, 20 hours, SEAP
[10] = read-out: THP1 Reporter Assays EC50 (μM) IRF3, THP1-Dual cells, 10% human plasma, 20 hours, luciferase
[11] = THP1-Dual cells, 10% human plasma, 20 hours, SEAP, read-out: THP1 Reporter Assays EC50 (μM) NFkB

Row | Structure (SMILES) | EC50 [1, 5] | EC50 [2, 6] | IC50 [3] | IC50 [4] | EC50 [1, 7] | EC50 [2, 8] | EC50 [1, 9] | EC50 [2, 10] | EC50 [1, 11] | EC50 ([2]; THP1-Dual cells, 10% human plasma, 20 hours, luciferase, read-out: THP1 Reporter Assays EC50 (μM) IRF3)
1 | Nc1ncnc2c1ncn2[C@@H]1O[C@@H]2COP(=O)(S)O[C@H]3[C@@H](O)[C@H](n4nnc5c([N+](=O)[O-])cccc54)O[C@@H]3COP(=O)(O)O[C@H]2[C@H]1F (single isomer, unassigned) [Example 13-1] | > 100 µM | > 100 µM | 1.44 µM | 8.45 µM | – | – | – | – | – | –
2 | Nc1ncnc2c1ncn2[C@@H]1O[C@@H]2COP(O)(=S)O[C@H]3[C@@H](F)[C@H](n4cnc5c4ncn4ncnc54)O[C@@H]3COP(O)(=S)O[C@H]2[C@H]1F (single isomer, unassigned) [Example 12-1] | – | 8.2 µM | 0.04 µM | 0.56 µM | 65.9 µM | – | – | – | – | –
3 | NC(=O)c1cc([C@@H]2O[C@@H]3COP(=O)(O)O[C@H]4[C@@H](F)[C@H](n5cnc6c(N)ncnc65)O[C@@H]4COP(=O)(S)O[C@H]3[C@H]2O)ccn1 (stereo partly drawn) [Example 14, 4-[(1R,6R,8S,9S,10S,15R,17R,18R)-17-(6-amino-9H-purin-9-yl)-18-fluoro-3,9-dihydroxy-3,12-dioxo-12-sulfanyl-2,4,7,11,13,16-hexaoxa-3λ^5,12λ^5-diphosphatricyclo[13.3.0.0^6,10]octadecan-8-yl]pyridine-2-carboxamide] | – | – | 1.14 µM | > 100 µM | > 100 µM | > 100 µM | – | – | – | –
4 | Nc1ncnc2c1ncn2[C@@H]1O[C@@H]2COP(=O)(S)O[C@H]3[C@@H](O)[C@H](n4nnc5c([N+](=O)[O-])cccc54)O[C@@H]3COP(=O)(O)O[C@H]2[C@H]1F (single isomer, unassigned) [Example 13-2] | – | – | 0.45 µM | 5.49 µM | – | – | > 100 µM | > 100 µM | – | –
5 | NC(=O)c1cc([C@@H]2O[C@@H]3COP(=O)(S)O[C@H]4[C@@H](F)[C@H](n5cnc6c(N)ncnc65)O[C@@H]4COP(=O)(S)O[C@H]3[C@H]2O)[nH]n1 (single isomer, unassigned) [Example 6-4] | – | – | 0.19 µM | 3.03 µM | – | – | – | – | > 100 µM | > 100 µM
6 | Nc1ncnc2c1ncn2[C@@H]1O[C@@H]2COP(=O)(S)O[C@H]3[C@@H](F)[C@H](n4cnc5c4ncn4ccnc54)O[C@@H]3COP(=O)(S)O[C@H]2[C@H]1F (single isomer, unassigned) [Example 21-1] | – | – | 0.01 µM | 0.32 µM | – | – | 34.6 µM | 28.2 µM | – | –
7 | Nc1ncnc2c1ncn2[C@@H]1O[C@@H]2COP(=O)(O)O[C@H]3[C@@H](F)[C@H](n4cnc5c4ncn4ccnc54)O[C@@H]3COP(=O)(O)O[C@H]2[C@H]1O [Example 20] | 13.6 µM | – | 0.01 µM | 0.04 µM | – | 3.71 µM | – | – | – | –
8 | Nc1ncnc2c1ncn2[C@@H]1O[C@@H]2COP(=O)(S)O[C@H]3[C@@H](F)[C@H](n4cnc5c4ncn4ncnc54)O[C@@H]3COP(=O)(S)O[C@H]2[C@H]1F (single isomer, unassigned) [Example 12-2] | – | – | 0.002 µM | 0.01 µM | – | – | – | 0.2 µM | 2.64 µM | –
9 | Nc1ncnc2c1ncn2[C@@H]1O[C@@H]2COP(=O)(S)O[C@H]3[C@@H](F)[C@H](n4cnc5c4ncn4ncnc54)O[C@@H]3COP(=O)(S)O[C@H]2[C@H]1F (single isomer, unassigned) [Example 12-4] | – | – | 0.005 µM | 0.002 µM | – | – | – | 0.06 µM | 1.09 µM | –
10 | NC(=O)c1cccc2c1nnn2[C@@H]1O[C@@H]2COP(=O)(O)O[C@H]3[C@@H](F)[C@H](n4cnc5c(N)ncnc54)O[C@@H]3COP(=O)(S)O[C@H]2[C@H]1F (single isomer, unassigned) [Example 8-1] | – | – | 1.75 µM | 64.6 µM | > 100 µM | > 100 µM | – | – | – | –
